# Measurements published in ChEMBL document CHEMBL1152005, “Design, synthesis and X-ray crystallographic studies of novel FKBP-12 ligands” (Bioorg Med Chem Lett, 1995).
# Test: Compound was evaluated for its ability to inhibit the rotamase activity of FKBP-12; no inhibition
# Conditions: not given; call rule not given here
row,Ki app,SMILES
1,Not Active,O=C1CC2CCCC(O)(C1)C2 (stereo not given)

# Test: Compound was evaluated for its ability to inhibit the rotamase activity of FKBP-12
# Conditions: read-out: Ki app
row,Ki [µM],SMILES
1,9.2,O=C1CC2CCCC(Sc3ccccc3)(C1)C2 (stereo not given)
2,16.7,O=C1CC2CCCC(Oc3cccc(O)c3)(C1)C2 (stereo not given)
3,165,CN(c1ccccc1)C12CCCC(CC(=O)C1)C2 (stereo not given)
4,120,Cc1ccccc1OC12CCCC(CC(=O)C1)C2 (stereo not given)
5,461,Cc1cccc(C)c1OC12CCCC(CC(=O)C1)C2 (stereo not given)
6,92.1,COc1cccc(OC23CCCC(CC(=O)C2)C3)c1 (stereo not given)
7,85.8,O=C1CC2CCCC(OCc3ccccc3)(C1)C2 (stereo not given)
8,116,O=C1CC2CCCC(Oc3ccccc3)(C1)C2 (stereo not given)
9,48.5,O=C1CC2CCCC(S(=O)(=O)c3ccccc3)(C1)C2 (stereo not given)
